Consider 13 compounds from PubChem BioAssay AID308 (DTP/NCI, 2004).

Each structure is given as a SMILES string. Where “and” joins values, the source holds several entries; their conditions need not be identical. Identical values can stand only once. Inconclusive results and toxic doses are left out.

This test relates to BDF1 mice, L1210 6-MP/6-TG resistant leukemia ip, survival T/C. Kind of test: NCI In Vivo Anticancer Drug Screen. Data for tumor model L1210 Leukemia resistant to 6-MP and 6-Thioguanine; NSC 755, NSC 752 (intraperitoneal) in B6D2F1 (BDF1) mice. As to conditions: endpoint: mean survival time, higher = longer survival. The procedure:
The antitumor activity of compounds was measured in mice bearing transplantable tumors. Survival or tumor size were measured and the results are expressed as the measurement made in the treated group (T) divided by the measurement made in the vehicle treated control group (C). The tumor model used in this assay is L1210 Leukemia resistant to 6-MP and 6-Thioguanine; NSC 755, NSC 752 (intraperitoneal) in B6D2F1 (BDF1) mice

[1] abbreviates: dose: 37.5 mg/kg/injection, schedule: Q01DX Z (ip), vehicle: carboxymethylcellulose (CMC).
Setting [2] is: dose: 4.0 mg/kg/injection, schedule: Q01DX Z (ip), vehicle: carboxymethylcellulose (CMC).
[3] abbreviates: dose: 6.0 mg/kg/injection, schedule: Q01DX Z (ip), vehicle: carboxymethylcellulose (CMC).
[4] abbreviates: dose: 8.0 mg/kg/injection, schedule: Q01DX Z (ip), vehicle: carboxymethylcellulose (CMC).
Setting [5] is: dose: 50.0 mg/kg/injection, schedule: Q01DX Z (ip), vehicle: saline.
[6] abbreviates: dose: 50.0 mg/kg/injection, schedule: Q01DX Z (ip), vehicle: other.
[7] abbreviates: dose: 12.0 mg/kg/injection, schedule: Q01DX Z (ip), vehicle: carboxymethylcellulose (CMC).

As for `CC(C)n1cnc2c(=S)nc[nH]c21`, the T/C is 96 % of control (dose: 2.5 mg/kg/injection, schedule: Q01DX015 (ip), vehicle: carboxymethylcellulose (CMC)); 96 % of control (dose: 5.0 mg/kg/injection, schedule: Q01DX015 (ip), vehicle: carboxymethylcellulose (CMC)); 96 % of control (dose: 10.0 mg/kg/injection, schedule: Q01DX015 (ip), vehicle: carboxymethylcellulose (CMC)); 94 % of control (dose: 20.0 mg/kg/injection, schedule: Q01DX015 (ip), vehicle: carboxymethylcellulose (CMC)); 86 % of control and 100 % of control (dose: 42.0 mg/kg/injection, schedule: Q01DX015 (ip), vehicle: carboxymethylcellulose (CMC)); 86 % of control (dose: 63.0 mg/kg/injection, schedule: Q01DX015 (ip), vehicle: carboxymethylcellulose (CMC)). The T/C (dose: 95.0 mg/kg/injection, schedule: Q01DX015 (ip), vehicle: carboxymethylcellulose (CMC)) was 86 % of control.
Turning to `CS(=O)(=O)OCCCl`, the T/C (dose: 75.0 mg/kg/injection, schedule: Q01DX Z (ip), vehicle: saline) is 115 % of control; the T/C (dose: 100.0 mg/kg/injection, schedule: Q01DX Z (ip), vehicle: saline) was 108 % of control; the T/C (dose: 150.0 mg/kg/injection, schedule: Q01DX Z (ip), vehicle: saline) was 116 % of control.
In the case of `CN(C)[C@@H]1C(=O)C(C(=O)NCNc2nc3n[nH]nc3c(=O)[nH]2)=C(O)[C@@]2(O)C(=O)C3=C(O)c4c(O)cccc4[C@@](C)(O)[C@H]3C[C@@H]12`, the T/C runs as follows: (dose: 50.0 mg/kg/injection, schedule: Q01DX009 (ip), vehicle: saline) 100 % of control; (dose: 100.0 mg/kg/injection, schedule: Q01DX009 (ip), vehicle: saline) 104 % of control; (dose: 200.0 mg/kg/injection, schedule: Q01DX009 (ip), vehicle: saline) 100 % of control; (dose: 400.0 mg/kg/injection, schedule: Q01DX009 (ip), vehicle: saline) 100 % of control.
Regarding `Cc1cc(N(CCCl)CCCl)ccc1N=Nc1ccccc1C(=O)O`, the T/C was 119 % of control (dose: 4.5 mg/kg/injection, schedule: Q01DX Z (ip), vehicle: carboxymethylcellulose (CMC)); 124 % of control (dose: 9.0 mg/kg/injection, schedule: Q01DX Z (ip), vehicle: carboxymethylcellulose (CMC)); 114 % of control (dose: 18.75 mg/kg/injection, schedule: Q01DX Z (ip), vehicle: carboxymethylcellulose (CMC)); 123 % of control (dose: 25.0 mg/kg/injection, schedule: Q01DX Z (ip), vehicle: carboxymethylcellulose (CMC)); 90 % of control under setting [1].
Regarding `C1CN1c1nc(N2CC2)nc(N2CC2)n1`, the T/C is, setting by setting: (dose: 0.25 mg/kg/injection, schedule: Q01DX Z (ip), vehicle: saline) 118 % of control; (dose: 1.0 mg/kg/injection, schedule: Q01DX Z (ip), vehicle: saline) 109 % of control.
Regarding `Nc1ncnc2c1ncn2C(C=O)OC(C=O)CO` (stereo unspecified), the T/C was 97 % of control under setting [2]; 102 % of control under setting [3]; 106 % of control under setting [4]; 170 % of control (dose: 12.0 mg/kg/injection, schedule: Q01DX015 (ip), vehicle: saline); 124 % of control (dose: 12.0 mg/kg/injection, schedule: Q01DX Z (ip), vehicle: saline); 171 % of control (dose: 13.0 mg/kg/injection, schedule: Q01DX015 (ip), vehicle: saline). In addition, the T/C reads like this: (dose: 24.0 mg/kg/injection, schedule: Q01DX015 (ip), vehicle: saline) 189 % of control; (dose: 48.0 mg/kg/injection, schedule: Q01DX015 (ip), vehicle: saline) 111 % of control; under setting [5], 88 % of control.
Consider `C[C@H]1C(=O)O[C@@H]2CCN3CC=C(COC(=O)[C@](C)(O)[C@@]1(C)O)[C@H]23`, for which the T/C under setting [1] was 91 % of control; the T/C (dose: 75.0 mg/kg/injection, schedule: Q01DX Z (ip), vehicle: carboxymethylcellulose (CMC)) was 110 % of control; the T/C (dose: 150.0 mg/kg/injection, schedule: Q01DX Z (ip), vehicle: carboxymethylcellulose (CMC)) is 107 % of control; the T/C (dose: 300.0 mg/kg/injection, schedule: Q01DX Z (ip), vehicle: carboxymethylcellulose (CMC)) was 104 % of control.
With `O=C(OCC1OC(n2cnc3c(=S)nc[nH]c32)C(OC(=O)c2ccc([N+](=O)[O-])cc2)C1OC(=O)c1ccc([N+](=O)[O-])cc1)c1ccc([N+](=O)[O-])cc1` (stereo unspecified), the T/C by setting is: (dose: 6.25 mg/kg/injection, schedule: Q01DX015 (ip), vehicle: other) 94 % of control; (dose: 12.5 mg/kg/injection, schedule: Q01DX015 (ip), vehicle: other) 105 % of control; (dose: 25.0 mg/kg/injection, schedule: Q01DX015 (ip), vehicle: other) 88 % of control; under setting [6], 92 % of control; (dose: 400.0 mg/kg/injection, schedule: Q01DX Z (ip), vehicle: other) 86 % of control.
As to `O=C(Nc1ccc(C2=NCCN2)cc1)c1ccc(C(=O)Nc2ccc(C3=NCCN3)cc2)c([N+](=O)[O-])c1`, the T/C by setting is: (dose: 0.5 mg/kg/injection, schedule: Q01DX Z (ip), vehicle: methylcellulose (MC)) 98 % of control; (dose: 1.0 mg/kg/injection, schedule: Q01DX Z (ip), vehicle: methylcellulose (MC)) 93 % of control; (dose: 2.0 mg/kg/injection, schedule: Q01DX Z (ip), vehicle: carboxymethylcellulose (CMC)) 181 % of control; (dose: 2.0 mg/kg/injection, schedule: Q01DX Z (ip), vehicle: methylcellulose (MC)) 112 % of control; under setting [2], 233 % of control; under setting [3], 186 % of control. Moreover, the T/C (dose: 6.0 mg/kg/injection, schedule: Q01DX Z (ip), vehicle: methylcellulose (MC)) is 224 % of control; the T/C under setting [4] is 124 % of control and 232 % of control; the T/C under setting [7] was 173 % of control; the T/C (dose: 27.0 mg/kg/injection, schedule: Q01DX Z (ip), vehicle: carboxymethylcellulose (CMC)) was 107 % of control; the T/C (dose: 27.0 mg/kg/injection, schedule: Q02DX010 (ip), vehicle: saline) is 224 % of control; the T/C (dose: 60.0 mg/kg/injection, schedule: Q02DX010 (ip), vehicle: saline) was 111 % of control.
Consider `CCCC(=O)OCC1OC(n2cnc3c(=S)nc(N)[nH]c32)C(OC(=O)CCC)C1OC(=O)CCC` (stereo unspecified), for which the T/C under setting [3] was 113 % of control; the T/C under setting [7] was 93 % of control; the T/C (dose: 24.0 mg/kg/injection, schedule: Q01DX Z (ip), vehicle: carboxymethylcellulose (CMC)) was 98 % of control.
`CN(C)c1ccc(/C=C/c2ccnc3ccccc23)cc1`: the T/C is, setting by setting: (dose: 1.87 mg/kg/injection, schedule: Q01DX Z (ip), vehicle: saline) 115 % of control; (dose: 3.75 mg/kg/injection, schedule: Q01DX Z (ip), vehicle: saline) 109 % of control; (dose: 7.5 mg/kg/injection, schedule: Q01DX Z (ip), vehicle: saline) 115 % of control; (dose: 15.0 mg/kg/injection, schedule: Q01DX Z (ip), vehicle: saline) 110 % of control; (dose: 25.0 mg/kg/injection, schedule: Q01DX Z (ip), vehicle: saline) 102 % of control; under setting [5], 90 % of control.
For the compound `Clc1ccccc1CSc1ncnc2nc[nH]c12`, the T/C is, setting by setting: (dose: 62.5 mg/kg/injection, schedule: Q01DX Z (ip), vehicle: other) 96 % of control; (dose: 125.0 mg/kg/injection, schedule: Q01DX Z (ip), vehicle: other) 92 % of control; (dose: 250.0 mg/kg/injection, schedule: Q01DX Z (ip), vehicle: other) 86 % of control.
As for `CCCC(=O)OCC1OC(n2cnc3c(=S)nc[nH]c32)C(OC(=O)CCC)C1OC(=O)CCC` (stereo unspecified), the T/C was 99 % of control (dose: 6.25 mg/kg/injection, schedule: Q01DX Z (ip), vehicle: other); 92 % of control (dose: 12.5 mg/kg/injection, schedule: Q01DX Z (ip), vehicle: other); 92 % of control (dose: 25.0 mg/kg/injection, schedule: Q01DX009 (ip), vehicle: Klucel (hydroxypropylcellulose) (HPC)); 90 % of control and 92 % of control (dose: 25.0 mg/kg/injection, schedule: Q01DX Z (ip), vehicle: other); 98 % of control (dose: 50.0 mg/kg/injection, schedule: Q01DX009 (ip), vehicle: Klucel (hydroxypropylcellulose) (HPC)); 96 % of control under setting [6]. Further, the T/C runs as follows: (dose: 100.0 mg/kg/injection, schedule: Q01DX009 (ip), vehicle: Klucel (hydroxypropylcellulose) (HPC)) 92 % of control; (dose: 100.0 mg/kg/injection, schedule: Q01DX Z (ip), vehicle: other) 90 % of control.
